{"source": "patent US12617758B2", "about": "“Quinazoline derivative having FLT3 inhibitory activity, and use thereof” (INDUSTRY-UNIVERSITY COOPERATION FOUNDATION HANYANG …, priority 2020, dated 2026)", "assay_in_all_cases": "Kinase panel screening", "type_in_all_cases": "biochemical", "conditions_in_all_cases": "single dose of 10 μM, read-out: % inhibition rate", "key": {"GSK3b": {"biological_target": "GSK3b (Homo sapiens, UniProt P49841)", "sequence (P49841 whole entry, species assumed)": "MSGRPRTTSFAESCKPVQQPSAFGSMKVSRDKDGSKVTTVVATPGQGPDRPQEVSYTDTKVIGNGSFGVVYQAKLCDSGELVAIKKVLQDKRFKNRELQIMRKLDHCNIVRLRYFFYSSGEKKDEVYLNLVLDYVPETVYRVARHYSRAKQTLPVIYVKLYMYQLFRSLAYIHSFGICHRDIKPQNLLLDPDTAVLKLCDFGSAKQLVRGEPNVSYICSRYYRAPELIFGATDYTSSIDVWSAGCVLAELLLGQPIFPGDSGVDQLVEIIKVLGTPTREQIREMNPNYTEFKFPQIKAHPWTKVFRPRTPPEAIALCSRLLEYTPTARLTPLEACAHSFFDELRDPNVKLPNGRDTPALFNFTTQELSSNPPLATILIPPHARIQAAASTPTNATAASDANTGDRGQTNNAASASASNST"}, "AXL (R499C)": {"biological_target": "AXL (R499C) (Homo sapiens, UniProt P30530, R499C)", "sequence (P30530 26-894 R499C, species assumed)": "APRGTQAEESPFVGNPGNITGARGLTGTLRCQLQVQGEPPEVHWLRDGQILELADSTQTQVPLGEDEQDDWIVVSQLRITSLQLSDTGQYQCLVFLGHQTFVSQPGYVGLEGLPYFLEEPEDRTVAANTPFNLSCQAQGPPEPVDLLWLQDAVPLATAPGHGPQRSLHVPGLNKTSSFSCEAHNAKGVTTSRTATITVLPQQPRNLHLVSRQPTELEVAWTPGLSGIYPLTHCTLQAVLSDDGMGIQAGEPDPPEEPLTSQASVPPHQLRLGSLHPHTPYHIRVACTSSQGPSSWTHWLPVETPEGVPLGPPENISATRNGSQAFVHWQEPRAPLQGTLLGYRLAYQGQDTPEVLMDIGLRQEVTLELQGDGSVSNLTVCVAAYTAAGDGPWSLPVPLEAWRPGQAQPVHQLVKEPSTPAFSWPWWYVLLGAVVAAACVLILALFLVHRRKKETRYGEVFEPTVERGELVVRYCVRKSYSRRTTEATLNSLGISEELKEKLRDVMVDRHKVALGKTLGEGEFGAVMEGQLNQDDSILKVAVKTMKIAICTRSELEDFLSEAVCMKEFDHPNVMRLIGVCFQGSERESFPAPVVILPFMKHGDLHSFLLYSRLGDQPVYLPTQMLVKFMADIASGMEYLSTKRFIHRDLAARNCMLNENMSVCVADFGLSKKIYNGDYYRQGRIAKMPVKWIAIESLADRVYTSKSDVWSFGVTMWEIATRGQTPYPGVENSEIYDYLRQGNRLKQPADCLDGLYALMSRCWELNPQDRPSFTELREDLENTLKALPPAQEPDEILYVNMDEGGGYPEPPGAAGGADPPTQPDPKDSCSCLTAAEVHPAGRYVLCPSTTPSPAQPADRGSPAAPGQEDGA"}, "JAK3": {"biological_target": "JAK3 (Homo sapiens, UniProt P52333)", "sequence (P52333 whole entry, species assumed)": "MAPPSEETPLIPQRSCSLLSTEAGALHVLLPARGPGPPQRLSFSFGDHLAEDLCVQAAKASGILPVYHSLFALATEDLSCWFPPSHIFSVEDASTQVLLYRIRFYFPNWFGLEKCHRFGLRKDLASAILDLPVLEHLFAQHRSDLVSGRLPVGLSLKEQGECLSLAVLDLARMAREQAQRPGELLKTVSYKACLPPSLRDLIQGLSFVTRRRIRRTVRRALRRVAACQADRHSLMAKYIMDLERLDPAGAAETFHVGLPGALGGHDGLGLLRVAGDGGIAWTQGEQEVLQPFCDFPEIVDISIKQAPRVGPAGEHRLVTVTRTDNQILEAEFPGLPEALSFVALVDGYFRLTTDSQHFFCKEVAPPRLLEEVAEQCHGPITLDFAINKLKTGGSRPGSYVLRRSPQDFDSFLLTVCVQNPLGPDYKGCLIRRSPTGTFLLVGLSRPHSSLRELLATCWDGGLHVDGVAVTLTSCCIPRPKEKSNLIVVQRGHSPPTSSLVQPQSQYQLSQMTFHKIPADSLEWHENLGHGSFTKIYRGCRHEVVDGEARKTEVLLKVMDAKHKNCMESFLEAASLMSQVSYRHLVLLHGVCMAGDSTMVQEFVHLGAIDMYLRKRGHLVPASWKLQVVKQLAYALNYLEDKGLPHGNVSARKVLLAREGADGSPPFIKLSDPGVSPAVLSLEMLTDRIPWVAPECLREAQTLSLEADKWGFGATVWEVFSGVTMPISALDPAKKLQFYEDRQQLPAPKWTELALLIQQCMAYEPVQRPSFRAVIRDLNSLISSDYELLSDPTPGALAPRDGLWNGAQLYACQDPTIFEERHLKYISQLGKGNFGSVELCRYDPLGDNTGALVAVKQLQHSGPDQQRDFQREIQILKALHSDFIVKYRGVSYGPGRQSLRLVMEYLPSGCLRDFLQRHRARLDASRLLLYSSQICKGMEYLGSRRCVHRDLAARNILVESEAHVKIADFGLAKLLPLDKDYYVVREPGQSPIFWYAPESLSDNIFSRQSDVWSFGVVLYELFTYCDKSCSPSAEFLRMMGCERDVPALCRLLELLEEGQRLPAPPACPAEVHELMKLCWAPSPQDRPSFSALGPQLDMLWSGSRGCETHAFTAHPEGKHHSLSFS"}, "LYN": {"biological_target": "LYN (Homo sapiens, UniProt P07948)", "sequence (P07948 whole entry, species assumed)": "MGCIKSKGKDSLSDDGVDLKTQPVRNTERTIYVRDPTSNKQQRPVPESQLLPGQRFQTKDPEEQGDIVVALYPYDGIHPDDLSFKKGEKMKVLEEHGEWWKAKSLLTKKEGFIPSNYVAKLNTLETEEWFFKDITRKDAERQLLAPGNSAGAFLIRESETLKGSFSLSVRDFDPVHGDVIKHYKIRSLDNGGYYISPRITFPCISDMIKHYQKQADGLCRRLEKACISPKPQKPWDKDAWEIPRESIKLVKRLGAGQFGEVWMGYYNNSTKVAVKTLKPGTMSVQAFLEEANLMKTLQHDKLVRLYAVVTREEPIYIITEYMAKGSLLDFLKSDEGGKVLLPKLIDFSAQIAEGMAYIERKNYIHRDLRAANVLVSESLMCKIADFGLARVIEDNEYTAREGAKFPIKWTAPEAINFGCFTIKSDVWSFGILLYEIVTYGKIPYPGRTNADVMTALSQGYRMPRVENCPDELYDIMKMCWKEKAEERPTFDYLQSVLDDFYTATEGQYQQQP"}, "BTK": {"biological_target": "BTK (Homo sapiens, UniProt Q06187)", "sequence (Q06187 whole entry, species assumed)": "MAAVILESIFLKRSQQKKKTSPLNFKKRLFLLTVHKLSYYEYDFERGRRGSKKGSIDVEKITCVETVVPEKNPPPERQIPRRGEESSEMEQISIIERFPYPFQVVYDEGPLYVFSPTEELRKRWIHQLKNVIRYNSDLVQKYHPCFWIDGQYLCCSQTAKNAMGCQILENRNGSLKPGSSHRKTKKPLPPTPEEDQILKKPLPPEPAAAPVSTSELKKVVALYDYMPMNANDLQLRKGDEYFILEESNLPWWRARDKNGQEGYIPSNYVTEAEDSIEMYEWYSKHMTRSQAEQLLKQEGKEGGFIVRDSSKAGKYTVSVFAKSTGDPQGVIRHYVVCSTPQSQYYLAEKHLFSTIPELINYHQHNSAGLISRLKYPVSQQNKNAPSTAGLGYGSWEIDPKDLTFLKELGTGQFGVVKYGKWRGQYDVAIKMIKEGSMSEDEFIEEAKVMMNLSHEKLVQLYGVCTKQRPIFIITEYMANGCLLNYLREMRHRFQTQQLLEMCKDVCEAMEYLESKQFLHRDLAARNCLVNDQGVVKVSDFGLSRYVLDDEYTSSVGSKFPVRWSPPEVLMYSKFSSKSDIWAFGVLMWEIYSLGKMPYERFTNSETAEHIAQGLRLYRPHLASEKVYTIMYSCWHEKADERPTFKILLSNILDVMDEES"}, "ABL1": {"biological_target": "ABL1 (Homo sapiens, UniProt P00519)", "sequence (P00519 whole entry, species assumed)": "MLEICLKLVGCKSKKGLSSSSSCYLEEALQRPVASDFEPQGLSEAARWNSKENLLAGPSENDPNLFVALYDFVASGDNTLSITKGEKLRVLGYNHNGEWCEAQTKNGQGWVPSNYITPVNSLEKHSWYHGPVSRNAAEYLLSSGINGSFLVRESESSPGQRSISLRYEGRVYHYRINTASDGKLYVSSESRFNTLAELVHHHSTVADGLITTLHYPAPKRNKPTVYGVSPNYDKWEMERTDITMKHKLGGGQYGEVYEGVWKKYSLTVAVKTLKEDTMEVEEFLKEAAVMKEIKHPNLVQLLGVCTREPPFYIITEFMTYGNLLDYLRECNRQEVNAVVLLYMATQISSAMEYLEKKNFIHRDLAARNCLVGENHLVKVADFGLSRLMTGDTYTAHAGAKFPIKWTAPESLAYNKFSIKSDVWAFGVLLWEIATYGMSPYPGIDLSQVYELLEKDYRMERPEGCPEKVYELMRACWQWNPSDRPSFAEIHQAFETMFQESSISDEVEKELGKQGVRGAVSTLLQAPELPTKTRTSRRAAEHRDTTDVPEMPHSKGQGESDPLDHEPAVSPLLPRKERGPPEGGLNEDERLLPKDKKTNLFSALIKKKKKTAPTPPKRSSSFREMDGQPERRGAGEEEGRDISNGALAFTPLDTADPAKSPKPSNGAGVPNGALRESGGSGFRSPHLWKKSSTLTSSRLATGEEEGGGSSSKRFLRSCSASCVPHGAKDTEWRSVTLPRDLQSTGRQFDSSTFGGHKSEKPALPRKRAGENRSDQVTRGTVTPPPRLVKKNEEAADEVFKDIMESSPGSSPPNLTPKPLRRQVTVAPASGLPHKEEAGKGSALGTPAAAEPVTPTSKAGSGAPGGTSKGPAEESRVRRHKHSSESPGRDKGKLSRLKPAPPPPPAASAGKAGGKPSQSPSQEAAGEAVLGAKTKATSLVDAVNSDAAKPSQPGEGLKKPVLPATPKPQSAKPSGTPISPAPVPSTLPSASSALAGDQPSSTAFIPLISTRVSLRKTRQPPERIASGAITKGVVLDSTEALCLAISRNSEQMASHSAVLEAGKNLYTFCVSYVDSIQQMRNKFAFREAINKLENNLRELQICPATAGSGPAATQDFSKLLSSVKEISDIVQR"}, "BRAF (V599E)": {"biological_target": "BRAF (V599E) (Homo sapiens, UniProt P15056, V600E)", "sequence (P15056 416-766 V600E limits assumed, species assumed)": "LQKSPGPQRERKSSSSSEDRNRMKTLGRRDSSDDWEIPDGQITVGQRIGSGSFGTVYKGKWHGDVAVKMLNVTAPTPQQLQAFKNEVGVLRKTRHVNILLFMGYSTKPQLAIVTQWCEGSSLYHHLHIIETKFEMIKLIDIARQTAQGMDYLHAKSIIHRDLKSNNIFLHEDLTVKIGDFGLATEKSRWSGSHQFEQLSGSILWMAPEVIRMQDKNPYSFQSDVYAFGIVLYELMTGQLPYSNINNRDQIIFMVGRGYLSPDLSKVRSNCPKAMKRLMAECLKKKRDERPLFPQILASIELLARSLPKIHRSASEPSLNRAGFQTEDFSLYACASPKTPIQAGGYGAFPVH"}}}
{"smiles": "Cc1oncc1C(=O)Nc1ccc2cnc(-c3cc(N4CCN(C)CC4)cc(C(F)(F)F)c3)nc2c1", "note": "[Compound 7d, 5-methyl-N-(2-(3-(4-methylpiperazin-1-yl)-5-(trifluoromethyl)phenyl)quinazolin-7-yl)isoxazole-4-carboxamide]", "values": [{"measurement": "inhibition at 10 µM", "setting": "GSK3b", "value": 8.06, "unit": "%"}, {"measurement": "inhibition at 10 µM", "setting": "AXL (R499C)", "value": 10.1, "unit": "%"}, {"measurement": "inhibition at 10 µM", "setting": "JAK3", "value": 0.8, "unit": "%"}, {"measurement": "inhibition at 10 µM", "setting": "LYN", "value": 20.5, "unit": "%"}, {"measurement": "inhibition at 10 µM", "setting": "BTK", "value": 17.5, "unit": "%"}, {"measurement": "inhibition at 10 µM", "setting": "ABL1", "value": 6.46, "unit": "%"}, {"measurement": "inhibition at 10 µM", "setting": "BRAF (V599E)", "value": 5.19, "unit": "%"}]}
